{
  "source": "patent US7820851B2",
  "about": "“Isotopically labeled polyfluorinated compound useful as an imaging tracer” (PerkinElmer Health Sciences, Inc., priority 2006, dated 2010)",
  "origin": "cited, not measured here",
  "key": {"[1]": {"details": "reported value; context: PFOA levels in American residents"}},
  "note": "Where two headings read alike, the source gives them in different places.",
  "data": [
    {"smiles": "O=C(O)C(F)(F)C(F)(F)C(F)(F)C(F)(F)C(F)(F)C(F)(F)C(F)(F)F", "note": "[PFOA, Perfluorooctanoic acid]", "values": [
      {"measurement": "elimination half-life", "setting": "[1]", "result": 4, "unit": "years"},
      {"measurement": "primary tissues of distribution of PFOA-derived carbon-14", "setting": "female rats", "result": "liver, plasma, and kidney"},
      {"measurement": "elimination of PFOA-derived radioactivity in the urine", "setting": "female rats, carbon-14 labeled PFOA", "result": "rapidly"},
      {"measurement": "primary tissues of distribution of PFOA-derived carbon-14", "setting": "male rats", "result": "liver and plasma"},
      {"measurement": "administered carbon-14 eliminated in the urine", "setting": "male rats, carbon-14 labeled PFOA, in the same period", "result": 6, "unit": "%"}
    ]}
  ]
}
